Holding throughout (test): Bacterial Assay: Determination of Antibacterial Activity (MIC, broth microdilution or agar dilution)
Common to all, as to format: cell-based
(In broth dilution the organism is exposed to a series of concentrations in liquid medium.)

Test [1] has as its system Clostridium difficile (Isolate ID 027-01). To be noted: Clostridioides difficile, 48 h, read-out: MIC (μg/mL) C. difficile (027-01). In outline:
(§1)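 MICs were set by CLSI broth microdilution or agar dilution for anaerobes, read visually after 48 hours at 37° C. under anaerobic gas packs. Medium was reinforced clostridial medium with 0.1% defibrinated horse blood; values are binned as A ≦1.01, B >1.0-4.0, C >4.0-16 μg/mL.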

Test [2] deals with Clostridium difficile (Isolate ID ATCC 9689). The note with it: Clostridioides difficile, ATCC9689, 48 h, read-out: C. difficile MIC Activity Range. Put shortly:
as §1

Test [3] deals with Clostridium difficile (Isolate ID BI-9). The note with it: Clostridioides difficile, 48 h, read-out: MIC (μg/mL) C. difficile (B-I9). Put shortly:
as §1

Values after ≈ are worked out from the molar mass of the structure shown.

On to `NC(=O)c1c(F)ccc(OCCCCOc2ccc(OC(F)(F)F)cc2)c1F` [Compound 128, 2,6-difluoro-3-{4-[4-(trifluoromethoxy)phenoxy]butoxy}benzamide], for which the MIC in test [1] was 0.06 µg/mL (≈ 0.148 µM); in test [2] it was below 1.01 µg/mL; in test [3] it was 0.12 µg/mL (≈ 0.296 µM).

On to `NC(=O)c1c(F)ccc(O[C@H](CO)c2nc(-c3ccc(C(F)(F)F)cc3)c(Br)o2)c1F` (single isomer, unassigned) [Compound 47], for which the MIC in test [1] was 0.12 µg/mL (≈ 0.237 µM); in test [2] it was below 1.01 µg/mL; in test [3], 0.12 µg/mL (≈ 0.237 µM).

Turning to `COc1ncc(-c2csc(COc3ccc(F)c(C(N)=O)c3F)n2)s1` [Compound 207, 2,6-difluoro-3-[(2′-methoxy-4,5′-bi-1,3-thiazol-2-yl)methoxy]benzamide], the MIC in test [1] is 4 µg/mL (≈ 10.4 µM); in test [2], 1 to 4 µg/mL (≈ 2.61 to 10.4 µM); in test [3], 4 µg/mL (≈ 10.4 µM).

For `NC(=O)c1c(F)ccc(OCCCOc2ccc(OC(F)(F)F)cc2)c1F` [Compound 126, 2,6-difluoro-3-{3-[4-(trifluoromethoxy)phenoxy]propoxy}benzamide], the figures for the MIC in test [1], in test [2] and in test [3] were 0.5 µg/mL (≈ 1.28 µM), below 1.01 µg/mL and 0.5 µg/mL (≈ 1.28 µM), respectively.

For the compound `CN(CCCCOc1ccc(OC(F)(F)F)cc1)c1ccc(F)c(C(N)=O)c1F` [Compound 152, 2,6-difluoro-3-(methyl{4-[4-(trifluoromethoxy)phenoxy]butyl}amino) benzamide], the MIC was 0.5 µg/mL (≈ 1.2 µM) in test [1], below 1.01 µg/mL in test [2] and 0.5 µg/mL (≈ 1.2 µM) in test [3].

As to `N/C(=N\O)c1c(F)ccc(OCc2nc(-c3ccc(Cl)cc3)ns2)c1F` [Compound 21, 3-{[3-(4-chlorophenyl)-1,2,4-thiadiazol-5-yl]methoxy}-2,6-difluoro-N′-hydroxybenzene-carboximidamide], the MIC is 5 µg/mL (≈ 12.6 µM) in test [1], below 1.01 µg/mL in test [2] and 5 µg/mL (≈ 12.6 µM) in test [3].

With `CCCCCCCCCOc1cccc(C(N)=O)c1F` [Compound 8, 2-fluoro-3-(nonyloxy)benzamide], the MIC in test [1] was 0.5 µg/mL (≈ 1.78 µM); in test [2], below 1.01 µg/mL; in test [3] it was 0.25 µg/mL (≈ 0.889 µM).

Regarding `CCCCCCCCCOc1ccc(F)c(/C(N)=N/O)c1F` [Compound 106, 2,6-difluoro-N′-hydroxy-3-(nonyloxy)benzenecarboximidamide], the MIC in test [1] is 0.5 µg/mL (≈ 1.59 µM); in test [2], below 1.01 µg/mL; in test [3], 0.5 µg/mL (≈ 1.59 µM).

As for `NC(=O)c1c(F)ccc(OCc2nc(-c3ccc(OC(F)(F)F)cc3)c(Br)s2)c1F` [Compound 105, 3-({5-bromo-4-[4-(trifluoromethoxy)phenyl]-1,3-thiazol-2-yl}methoxy)-2,6-difluorobenzamide], the MIC was 0.5 µg/mL (≈ 0.982 µM) in test [1], below 1.01 µg/mL in test [2] and 1 µg/mL (≈ 1.96 µM) in test [3].

Take `Cc1sc(COc2ccc(F)c(C(N)=O)c2F)nc1-c1ccc(Cl)cc1` [Compound 189, 3-{[4-(4-chlorophenyl)-5-methyl-1,3-thiazol-2-yl]methoxy}-2,6-difluorobenzamide]: the MIC is 1 µg/mL (≈ 2.53 µM) in test [1], below 1.01 µg/mL in test [2] and 1 µg/mL (≈ 2.53 µM) in test [3].

For the compound `NC(=O)c1c(F)ccc(OCc2nc(-c3ccc(Cl)cc3)c(Br)s2)c1F` [Compound 12, 3-{[5-bromo-4-(4-chlorophenyl)-1,3-thiazol-2-yl]methoxy}-2,6-difluorobenzamide], the MIC in test [1] is 1 µg/mL (≈ 2.18 µM); in test [2] it was below 1.01 µg/mL; in test [3], 1 µg/mL (≈ 2.18 µM).

Regarding `NC(=O)c1c(F)ccc(OCCCCOc2ccc(Cl)cc2)c1F` [Compound 127, 3-[4-(4-chlorophenoxy)butoxy]-2,6-difluoro-benzamide], the MIC in test [1] is 0.25 µg/mL (≈ 0.703 µM); in test [2], below 1.01 µg/mL; in test [3], 0.25 µg/mL (≈ 0.703 µM).

Regarding `NC(=O)c1c(F)ccc(OCCCCCc2ccc(C(F)(F)F)cc2)c1F` [Compound 155, 2,6-difluoro-3-({5-[4-(trifluoromethyl)phenyl]pentyl}oxy)benzamide], the values for the MIC in test [1], in test [2] and in test [3] were 0.12 µg/mL (≈ 0.31 µM), below 1.01 µg/mL and 0.12 µg/mL (≈ 0.31 µM), respectively.

For `NC(=O)c1c(F)ccc(OCc2nc(-c3ccc(C(F)(F)F)cc3)cs2)c1F` [Compound 16, 2,6-difluoro-3-({4-[4-(trifluoromethyl)phenyl]-1,3-thiazol-2-yl}methoxy)benzamide], the figures for the MIC in test [1], in test [2] and in test [3] were 0.5 µg/mL (≈ 1.21 µM), below 1.01 µg/mL and 0.5 µg/mL (≈ 1.21 µM), respectively.

On to `NC(=O)c1c(F)ccc(OCc2ccnc(-c3ccc(Cl)cc3)n2)c1F` [Compound 192, 3-{[2-(4-chlorophenyl)pyrimidin-4-yl]methoxy}-2,6-difluorobenzamide], for which the results for the MIC in test [1], in test [2] and in test [3] were 1 µg/mL (≈ 2.66 µM), below 1.01 µg/mL and 1 µg/mL (≈ 2.66 µM), respectively.

As to `NC(=O)c1c(F)ccc(OCc2nc(-c3ccc(S(F)(F)(F)(F)F)cc3)ns2)c1F` [Compound 110, 2,6-difluoro-3-({3-[4-(pentafluoro-lambda~6~- sulfanyl)phenyl]-1,2,4-thiadiazol-5-yl}methoxy)benzamide], the figures for the MIC in test [1], in test [2] and in test [3] were 0.06 µg/mL (≈ 0.127 µM), below 1.01 µg/mL and 0.06 µg/mL (≈ 0.127 µM), respectively.

For the compound `C#CCCCCCCCCCOc1ccc(F)c(C(N)=O)c1F` [Compound 7, 2,6-difluoro-3-(undec-10-yn-1-yloxy)benzamide], the MIC in test [1] is 0.12 µg/mL (≈ 0.371 µM); in test [2] it was below 1.01 µg/mL; in test [3], 0.12 µg/mL (≈ 0.371 µM).

For `NC(=O)c1c(F)ccc(OCCCCCOc2ccc(Cl)cc2)c1F` [Compound 130, 3-{[5-(4-chlorophenoxy)pentyl]oxy}-2,6-difluorobenzamide], the MIC was 0.5 µg/mL (≈ 1.35 µM) in test [1], below 1.01 µg/mL in test [2] and 0.5 µg/mL (≈ 1.35 µM) in test [3].

With `NC(=O)c1c(F)ccc(OCc2nc(-c3ccc(OC(F)(F)F)cc3)cs2)c1F` [Compound 17, 2,6-difluoro-3-({4-[4-(trifluoromethoxy)phenyl]-1,3-thiazol-2-yl}methoxy)benzamide], the values for the MIC in test [1], in test [2] and in test [3] were 0.185 µg/mL (≈ 0.43 µM), below 1.01 µg/mL and 0.25 µg/mL (≈ 0.581 µM), respectively.

With `NC(=O)c1c(F)ccc(OCc2nc(-c3ccc(Cl)cc3)cs2)c1F` [Compound 11, 3-{[4-(4-chlorophenyl)-1,3-thiazol-2-yl]methoxy}-2,6-difluorobenzamide], the results for the MIC in test [1], in test [2] and in test [3] were 0.25 µg/mL (≈ 0.657 µM), below 1.01 µg/mL and 0.25 µg/mL (≈ 0.657 µM), respectively.

As to `NC(=O)c1c(F)ccc(OCc2nc(-c3ccc(Cl)cc3)c(Br)o2)c1F` [Compound 104, 3-{[5-bromo-4-(4-chlorophenyl)-1,3-oxazol-2-yl]methoxy}-2,6-difluorobenzamide], the MIC was 0.12 µg/mL (≈ 0.27 µM) in test [1], below 1.01 µg/mL in test [2] and 0.12 µg/mL (≈ 0.27 µM) in test [3].

Consider `CN(C)C(=O)OCC(Oc1ccc(F)c(C(N)=O)c1F)c1nc(-c2ccc(C(F)(F)F)cc2)c(Br)o1` (stereo not drawn) [Compound 49, 2-{5-bromo-4-[4-(trifluoromethyl)phenyl]-1,3-oxazol-2-yl}-2-(3-carbamoyl-2,4-difluorophenoxy)ethyl dimethylcarbamate], for which the MIC in test [1] was 2 µg/mL (≈ 3.46 µM); in test [2], 1 to 4 µg/mL (≈ 1.73 to 6.92 µM); in test [3], 2 µg/mL (≈ 3.46 µM).

Turning to `COc1ccc(-c2csc(COc3ccc(F)c(C(N)=O)c3F)n2)cc1` [Compound 10, 2,6-difluoro-3-{[4-(4-methoxyphenyl)-1,3-thiazol-2-yl]methoxy}benzamide], the MIC in test [1] is 4 µg/mL (≈ 10.6 µM); in test [2], 1 to 4 µg/mL (≈ 2.66 to 10.6 µM); in test [3], 2 µg/mL (≈ 5.31 µM).

`NC(=O)c1c(F)ccc(OCc2nc(-c3ccc(OC(F)(F)F)cc3)c(Br)o2)c1F` [Compound 209, 3-({5-bromo-4-[4-(trifluoromethoxy)phenyl]-1,3-oxazol-2-yl}methoxy)-2,6-difluorobenzamide]: the MIC was 0.12 µg/mL (≈ 0.243 µM) in test [1], below 1.01 µg/mL in test [2] and 0.25 µg/mL (≈ 0.507 µM) in test [3].

For `CNC(=N)c1cccc(OCc2nc(-c3ccc(Cl)cc3)ns2)c1F` [Compound 205, 3-{[3-(4-chlorophenyl)-1,2,4-thiadiazol-5-yl]methoxy}-2-fluoro-N-methylbenzenecarboximidamide], the MIC was 16 µg/mL (≈ 42.5 µM) in test [1], 4 to 16 µg/mL (≈ 10.6 to 42.5 µM) in test [2] and 16 µg/mL (≈ 42.5 µM) in test [3].

On to `Cn1cccc1CNC(=O)OCC(Oc1ccc(F)c(C(N)=O)c1F)c1nc(-c2ccc(C(F)(F)F)cc2)c(Br)o1` (stereo not drawn) [Compound 80, 2-{5-bromo-4-[4-(trifluoromethyl)phenyl]-1,3-oxazol-2-yl}-2-(3-carbamoyl-2,4-difluorophenoxy)ethyl [(1-methyl-1H-pyrrol-2-yl)methyl]carbamate], for which the MIC in test [1] was 0.5 µg/mL (≈ 0.777 µM); in test [2], below 1.01 µg/mL; in test [3], 0.5 µg/mL (≈ 0.777 µM).

With `NC(=O)c1c(F)ccc(OCc2nc(-c3ccc(Cl)cc3)ns2)c1F` [Compound 19, 3-{[3-(4-chlorophenyl)-1,2,4-thiadiazol-5-yl]methoxy}-2,6-difluorobenzamide], the figures for the MIC in test [1], in test [2] and in test [3] were 1 µg/mL (≈ 2.62 µM), below 1.01 µg/mL and 2 µg/mL (≈ 5.24 µM), respectively.

`NC(=O)c1c(F)ccc(OC(CO)c2nc(-c3ccc(Cl)cc3)c(Br)o2)c1F` (stereo not drawn) [Compound 33, 3-{1-[5-bromo-4-(4-chlorophenyl)-1,3-oxazol-2-yl]-2-hydroxyethoxy}-2,6-difluorobenzamide]: the figures for the MIC in test [1], in test [2] and in test [3] were 0.12 µg/mL (≈ 0.253 µM), below 1.01 µg/mL and 0.5 µg/mL (≈ 1.06 µM), respectively.

Regarding `NC(=O)c1c(F)ccc(OCc2nc(-c3ccc(Cl)s3)cs2)c1F` [Compound 203, 3-{[4-(5-chlorothiophen-2-yl)-1,3-thiazol-2-yl]methoxy}-2,6-difluorobenzamide], the MIC in test [1] was 0.5 µg/mL (≈ 1.29 µM); in test [2], below 1.01 µg/mL; in test [3], 1 µg/mL (≈ 2.59 µM).
